Series [1] deals with Staphylococcus aureus. As to the kind of experiment: Antibiofilm activity against methicillin-resistant Staphylococcus aureus 1707 assessed as induction of change in gene expression 0.625 uM after 20 hrs by RNA sequencing data based analysis relative to control. The series is classed as functional.
For series [2], the system named is Staphylococcus aureus. As to the kind of experiment: Antibiofilm activity against methicillin-resistant Staphylococcus aureus assessed as increase in isdB expression at 0.625 uM after 4 hrs by RT-qPCR analysis relative to control. The series is classed as functional.
Series [3] has as its system Pseudomonas aeruginosa. As to the kind of experiment: Growth inhibition of Pseudomonas aeruginosa PA14 after 24 hrs. The series is classed as functional, organism-based. The settings on record: PA14, 24 h.
In series [4] the test system is Pseudomonas aeruginosa. As to the kind of experiment: Growth inhibition of Pseudomonas aeruginosa PAO1 after 24 hrs. The following applies: PAO1, 24 h. The series is classed as functional, organism-based.
Series [5] is described as follows: Drug accumulation in Escherichia coli MG1655 assessed per 10^12 CFU at 50 uM incubated for 10 mins under shaking condition by LC-MS/MS analysis. The series is classed as ADME, K-12 substr. MG1655.
The subject of series [6] is Staphylococcus aureus. As to the kind of experiment: Antibacterial activity against Staphylococcus aureus ATCC 29213 by broth microdilution method. The series is classed as functional.
Series [7] deals with Staphylococcus aureus. As to the kind of experiment: Antibacterial activity against Staphylococcus aureus NRS3 by broth microdilution method. The series is classed as functional.
For series [8], the system named is Escherichia coli. As to the kind of experiment: Antibacterial activity against Escherichia coli MG1655 by broth microdilution method. The series is classed as functional. The settings on record: K-12 substr. MG1655.
In series [9] the test system is Escherichia coli. As to the kind of experiment: Antibacterial activity against Escherichia coli ELZ4017 by broth microdilution method. The series is classed as functional.
The subject of series [10] is Escherichia coli. As to the kind of experiment: Antibacterial activity against Escherichia coli ELZ4045 by broth microdilution method. The series is classed as functional.
For series [11], the system named is Escherichia coli. As to the kind of experiment: Antibacterial activity against Escherichia coli ELZ4346 by broth microdilution method. The series is classed as functional.
The subject of series [12] is Escherichia coli. As to the kind of experiment: Antibacterial activity against Escherichia coli ELZ4081 by broth microdilution method. The series is classed as functional.
Series [13] has as its system Escherichia coli. As to the kind of experiment: Antibacterial activity against Escherichia coli ELZ4072 by broth microdilution method. The series is classed as functional.
For series [14], the system named is Escherichia coli. As to the kind of experiment: Antibacterial activity against Escherichia coli ELZ4239 by broth microdilution method. The series is classed as functional.
For series [15], the system named is Escherichia coli. As to the kind of experiment: Antibacterial activity against Escherichia coli BAA-2469 by broth microdilution method. The series is classed as functional.
The test system of series [16] is Klebsiella pneumoniae. As to the kind of experiment: Antibacterial activity against Klebsiella pneumoniae ATCC 27736 by broth microdilution method. The series is classed as functional.
Series [17] concerns Klebsiella pneumoniae. As to the kind of experiment: Antibacterial activity against Klebsiella pneumoniae 4-38 by broth microdilution method. The series is classed as functional.
Series [18] deals with Klebsiella pneumoniae. As to the kind of experiment: Antibacterial activity against Klebsiella pneumoniae 6-73 by broth microdilution method. The series is classed as functional.
Series [19] deals with Enterobacter cloacae. As to the kind of experiment: Antibacterial activity against Enterobacter cloacae ATCC 29893 by broth microdilution method. The series is classed as functional.
The subject of series [20] is Enterobacter cloacae. As to the kind of experiment: Antibacterial activity against Enterobacter cloacae 1-60 by broth microdilution method. The series is classed as functional.
The subject of series [21] is Enterobacter cloacae. As to the kind of experiment: Antibacterial activity against Enterobacter cloacae 3-46 by broth microdilution method. The series is classed as functional.
Series [22] concerns Acinetobacter baumannii. As to the kind of experiment: Antibacterial activity against Acinetobacter baumannii ATCC 19606 by broth microdilution method. The series is classed as functional. The following applies: ATCC 19606 = CIP 70.34 = JCM 6841.
For series [23], the system named is Acinetobacter baumannii. As to the kind of experiment: Antibacterial activity against Acinetobacter baumannii KB304 by broth microdilution method. The series is classed as functional.
In series [24] the test system is Acinetobacter baumannii. As to the kind of experiment: Antibacterial activity against Acinetobacter baumannii KB349 by broth microdilution method. The series is classed as functional.
Series [25] relates to Acinetobacter baumannii. As to the kind of experiment: Antibacterial activity against Acinetobacter baumannii WO22 by broth microdilution method. The series is classed as functional.
The test system of series [26] is Acinetobacter baumannii. As to the kind of experiment: Antibacterial activity against Acinetobacter baumannii BD335 by broth microdilution method. The series is classed as functional.
The subject of series [27] is Acinetobacter baumannii. As to the kind of experiment: Antibacterial activity against Acinetobacter baumannii IF101 by broth microdilution method. The series is classed as functional.
Series [28] deals with Pseudomonas aeruginosa. As to the kind of experiment: Antibacterial activity against Pseudomonas aeruginosa PAO1 by broth microdilution method. The series is classed as functional.
Series [29] relates to Staphylococcus aureus. As to the kind of experiment: Antibacterial activity against Staphylococcus aureus by CLSI protocol based dilution method. The series is classed as functional.
Series [30] has as its system Staphylococcus aureus. As to the kind of experiment: Antibacterial activity against methicillin-resistant Staphylococcus aureus. The series is classed as functional.
In series [31] the test system is Klebsiella pneumoniae. As to the kind of experiment: Antibacterial activity against Klebsiella pneumoniae. The series is classed as functional.
Series [32] deals with Pseudomonas aeruginosa. As to the kind of experiment: Antibacterial activity against Pseudomonas aeruginosa. The series is classed as functional.
Series [33] relates to Staphylococcus aureus. As to the kind of experiment: Antibiofilm activity against methicillin-resistant Staphylococcus aureus 2 assessed as induction of biofilm eradication incubated for 24 hrs followed by 3 times wash out with water and subsequent compound addition measured after 24 hrs. The series is classed as functional.
In series [34] the test system is Staphylococcus aureus. As to the kind of experiment: Antibiofilm activity against […] methicillin-resistant Staphylococcus aureus 2 assessed as induction of biofilm eradication incubated for 24 hrs followed by 3 times wash out with water and subsequent compound addition measured after 24 hrs. The series is classed as functional.

≈ marks a conversion by molar mass, not a printed value. Positions of bridges follow the written chain, without caps; N, C: chain ends. Non-standard residues stand in square brackets, D forms with d. Residues, ends and D or L forms follow the SMILES beside them. *: point of attachment. Phe(3,5-F2) = N[C@@H](Cc1cc(F)cc(F)c1)C(=O)O; Pip(4S-Me) = C[C@H]1CCN[C@H](C(=O)O)C1; Heptenoyl(2E) = CCCC/C=C/C(=O)*; aThr = C[C@H](O)[C@H](N)C(=O)O

Turning to `Oc1c(Br)cc(I)c2nc3cc(Cl)c(Cl)cc3nc12`, the “fold change (FC)” value was “>=2” in the series with Staphylococcus aureus [1] and 22.3 in the series on Staphylococcus aureus [2].

In the case of `CCCCCC[C@H](CCCCC[C@@H](O)C(N)=O)OC(=O)[C@@H]1CC=CN1C(=O)c1ccccc1O`, the IC50 in the series with Pseudomonas aeruginosa [3] is 67 to 130 nM; in the series on Pseudomonas aeruginosa [4], 1000 nM.

With `Cc1cc(=O)n(C)c2c3c4c(cc12)c(C)cc(=O)n4C(CN)CO3` (centres undefined), the Drug uptake in [5] came out at 1114 nmol. The MIC in the series on Staphylococcus aureus [6] was in the range of 0.03 to 0.5 µg/mL (≈ 0.0922 to 1.54 µM); with Staphylococcus aureus [7] it was 0.03 to 0.5 µg/mL (≈ 0.0922 to 1.54 µM); with Escherichia coli [8] it was 0.5 to 16 µg/mL (≈ 1.54 to 49.2 µM); in the series with Escherichia coli [9], 0.5 to 16 µg/mL (≈ 1.54 to 49.2 µM); against Escherichia coli [10], 0.5 to 16 µg/mL (≈ 1.54 to 49.2 µM); in the series on Escherichia coli [11] it was 0.5 to 16 µg/mL (≈ 1.54 to 49.2 µM). Also, the MIC against Escherichia coli [12] fell in the range of 0.5 to 16 µg/mL (≈ 1.54 to 49.2 µM); with Escherichia coli [13], 0.5 to 16 µg/mL (≈ 1.54 to 49.2 µM); against Escherichia coli [14], 0.5 to 16 µg/mL (≈ 1.54 to 49.2 µM); with Escherichia coli [15], 0.5 to 16 µg/mL (≈ 1.54 to 49.2 µM); in the series with Klebsiella pneumoniae [16], 1 to 8 µg/mL (≈ 3.07 to 24.6 µM); against Klebsiella pneumoniae [17] it was 1 to 8 µg/mL (≈ 3.07 to 24.6 µM). For the same compound, the MIC fell in the range of 1 to 8 µg/mL (≈ 3.07 to 24.6 µM) in the series with Klebsiella pneumoniae [18]; 0.5 to 4 µg/mL (≈ 1.54 to 12.3 µM) with Enterobacter cloacae [19]; 0.5 to 4 µg/mL (≈ 1.54 to 12.3 µM) in the series with Enterobacter cloacae [20]; 0.5 to 4 µg/mL (≈ 1.54 to 12.3 µM) in the series on Enterobacter cloacae [21]; 2 to 16 µg/mL (≈ 6.15 to 49.2 µM) in the series with Acinetobacter baumannii [22]; 2 to 16 µg/mL (≈ 6.15 to 49.2 µM) against Acinetobacter baumannii [23]. Besides, the MIC with Acinetobacter baumannii [24] is 2 to 16 µg/mL (≈ 6.15 to 49.2 µM); against Acinetobacter baumannii [25], 2 to 16 µg/mL (≈ 6.15 to 49.2 µM); against Acinetobacter baumannii [26], 2 to 16 µg/mL (≈ 6.15 to 49.2 µM); in the series with Acinetobacter baumannii [27] it was 2 to 16 µg/mL (≈ 6.15 to 49.2 µM); in the series with Pseudomonas aeruginosa [28], 16 µg/mL (≈ 49.2 µM).

`CCCC/C=C/C(=O)N[C@@H](Cc1cc(F)cc(F)c1)C(=O)N[C@@H]1C(=O)N2CCC[C@H]2C(=O)N2CC[C@H](C)C[C@H]2C(=O)N[C@@H](C)C(=O)N2CCC[C@H]2C(=O)O[C@H]1C` ({Heptenoyl(2E)}-[Phe(3,5-F2)][aThr]P[Pip(4S-Me)]AP; ester 2-C) showed an MIC in the series on Staphylococcus aureus [29] of 0.0306 µM (≈ 0.024 µg/mL).

As to `CN(C)[C@@H]1C(O)=C(C(N)=O)C(=O)[C@@]2(O)C(O)=C3C(=O)c4c(O)c(NC(=O)CN5CCCC5)cc(F)c4C[C@H]3C[C@@H]12` [ERAVACYCLINE], the MIC lay in the range of 0.015 to 4 µg/mL (≈ 0.0269 to 7.16 µM) against Staphylococcus aureus [30], 0.03 to 16 µg/mL (≈ 0.0537 to 28.6 µM) in the series on Klebsiella pneumoniae [31] and 0.06 to 64 µg/mL against Pseudomonas aeruginosa [32].

As for `CN[C@H](CC(C)C)C(=O)N[C@H]1C(=O)N[C@@H](CC(N)=O)C(=O)N[C@H]2C(=O)N[C@H]3C(=O)N[C@H](C(=O)N[C@H](C(=O)O)c4cc(O)cc(O)c4-c4cc3ccc4O)[C@H](O)c3ccc(c(Cl)c3)Oc3cc2cc(c3O[C@@H]2O[C@H](CO)[C@@H](O)[C@H](O)[C@H]2O[C@H]2C[C@](C)(N)[C@H](O)[C@H](C)O2)Oc2ccc(cc2Cl)[C@H]1O` [VANCOMYCIN], the MBEC in the series on Staphylococcus aureus [33] was more than 2000 µM; in the series on Staphylococcus aureus [34], 4 µM.

The values above are taken from ChEMBL document CHEMBL4321783, “Recent Progress in Natural-Product-Inspired Programs Aimed To Address Antibiotic Resistance and Tolerance” (J Med Chem, 2019).
